Structures can show the parent of a compound that is named as a salt. Where only a bound is given, the exact number is not on record here.

The first test relates to Phosphorylated Ribosomal Protein S6 (RPS6) in THP-1 cells. Nature of the test: THP-1 RPS6 ELISA Assay. In kind it is cell-based, Human. The note with it: Homo sapiens, THP-1, read-out: PI3Kγ_THP1_RPS6_ELISA IC50 (nM). How it is done: To measure the Phosphorylated Ribosomal Protein S6 (RPS6) in cell lysates, THP-1 cells (Human Acute Monocytic Leukemia) are purchased from ATCC (Manassas, Va.) and maintained in RPMI with 10% FBS (Gibco/Life Technologies, Carlsbad, Calif.). For the assay, THP-1 cells are serum starved overnight in RPMI, then plated in RPMI (2×10^5 cells/well in 90 μL) into 96-well flat-bottom tissue culture treated plates (Corning, Corning, N.Y.), in the presence or absence of a concentration range of test compounds. Covered plates are incubated for 2 hours at 37° C., 5% CO2 then treated with or without 10 nM MCP-1(MYBioSource, San Diego, Calif.) for 15 minutes at 37° C., 5% CO2. Plates are centrifuged at 1600 RPM and supernatants are removed. Cells are lysed in Lysis Buffer (Cell Signaling, Danvers, Mass.) with Protease Inhibitor (Calbiochem/EMD, Germany), PMSF (Sigma, St Louis Mo.), HALTS (Thermo Fisher, Rockford, Ill.) for 30 min on wet ice. Cell lysates are frozen at −80 OC before testing. The lysates are tested in the Human/Mouse/Rat Phospho-RPS6 ELISA (R&D Systems, Inc. Minn, Minn.). The plate is measured using a microplate reader (SpectraMax M5—Molecular Devices, LLC Sunnyvale, Calif.) set to 450 nm with a wavelength correction of 540. IC50 determination is performed by fitting the curve of inhibitor percent inhibition versus the log of the inhibitor concentration using the GraphPad Prism 5.0 software.
In general terms: In an ELISA, binding on a coated surface is turned into a signal by an enzyme label.
For `Cc1ccc(C(O)(C(N)=O)C(F)(F)F)cc1-c1cnc(N)c(N2CCN(CCC#N)CC2)n1` (stereo not shown) [Example 125, 2-(3-(5-amino-6-(4-(2-cyanoethyl)piperazin-1-yl)pyrazin-2-yl)-4-methylphenyl)-3,3,3-trifluoro-2-hydroxypropanamide trifluoroacetate], the IC50 – broadly, the midpoint of a concentration-inhibition curve – was < 500 nM.

Staying with this test, now noted: Homo sapiens; Table A1; THP-1 cells, 10 nM MCP-1; read-out: PI3Kγ_THP1_RPS6_ELISA IC50.
As for `Cc1ccc(C(O)(C(N)=O)C(F)(F)F)cc1-c1cnc(N)c(C(=O)N[C@H]2CCOC2)n1` (stereo partly drawn) [Example 11, 3-amino-6-(5-(3-amino-1,1,1-trifluoro-2-hydroxy-3-oxopropan-2-yl)-2-methylphenyl)-N-((S)-tetrahydrofuran-3-yl)pyrazine-2-carboxamide trifluoroacetate], the IC50 was < 100 nM. On the same count and under the same terms, under `Cc1ccc(C(O)(CNC(=O)CC#N)C(F)(F)F)cc1-c1cnc(N)c(C(=O)NC(C)C)n1` (stereo not shown) [Example 42, 3-Amino-6-(5-(3-(2-cyanoacetamido)-1,1,1-trifluoro-2-hydroxypropan-2-yl)-2-methylphenyl)-N-isopropylpyrazine-2-carboxamide trifluoroacetate] stands < 500 nM; under `Cc1ccc(C(O)(C(N)=O)C(F)(F)F)cc1-c1cnc(N)c(C(=O)NC2CCC(F)(F)CC2)n1` (stereo not shown) [Example 6, 3-amino-6-(5-(3-amino-1,1,1-trifluoro-2-hydroxy-3-oxopropan-2-yl)-2-methylphenyl)-N-(4,4-difluorocyclohexyl)pyrazine-2-carboxamide trifluoroacetate], < 100 nM.

In the case of `Cc1ccc(C(O)(C(N)=O)C(F)(F)F)cc1-c1cnc(N)c(C(=O)N2CCC2(C)C)n1` (stereo not shown) [Example 27, 2-(3-(5-amino-6-(2,2-dimethylazetidine-1-carbonyl)pyrazin-2-yl)-4-methylphenyl)-3,3,3-trifluoro-2-hydroxypropanamide], the 50% inhibitory concentration (IC50) was < 100 nM.

Take `CCNC(=O)c1nc(-c2cc(C(O)(C(N)=O)C(F)F)ccc2C)cnc1N` (stereo not shown) [Example 32, 3-amino-6-(5-(1-amino-3,3-difluoro-2-hydroxy-1-oxopropan-2-yl)-2-methylphenyl)-N-ethylpyrazine-2-carboxamide]: the IC50 was < 100 nM. Still for that read-out and setting: the value for `Cc1ccc(C(O)(C(N)=O)C(F)(F)F)cc1-c1cnc(N)c(C(=O)NCC(F)(F)F)n1` (stereo not shown) [Example 38, 3-Amino-6-(5-(3-amino-1,1,1-trifluoro-2-hydroxy-3-oxopropan-2-yl)-2-methylphenyl)-N-(2,2,2-trifluoroethyl)pyrazine-2-carboxamide trifluoroacetate] was < 100 nM; that for `Cc1ccc(C(O)(C(N)=O)C(F)F)cc1-c1cnc(N)c(C(=O)NC2CCC(F)(F)CC2)n1` (stereo not shown) [Example 34, 3-amino-6-(5-(1-amino-3,3-difluoro-2-hydroxy-1-oxopropan-2-yl)-2-methylphenyl)-N-(4,4-difluorocyclohexyl)pyrazine-2-carboxamide] was < 100 nM. The same measure, in the same setting: the value for `COC(C)(C)CNC(=O)c1nc(-c2cc(C(O)(C(N)=O)C(F)(F)F)ccc2C)cnc1N` (stereo not shown) [Example 21, 3-amino-6-(5-(3-amino-1,1,1-trifluoro-2-hydroxy-3-oxopropan-2-yl)-2-methylphenyl)-N-(2-methoxy-2-methylpropyl)pyrazine-2-carboxamide trifluoroacetate] was < 100 nM. In the case of `Cc1ccc(C(O)(C(N)=O)C(F)F)cc1-c1cnc(N)c(C(=O)NCC2(C#N)CC2)n1` (stereo not shown) [Example 33, 3-amino-6-(5-(1-amino-3,3-difluoro-2-hydroxy-1-oxopropan-2-yl)-2-methylphenyl)-N-((1-cyanocyclopropyl)methyl)pyrazine-2-carboxamide], the half-maximal inhibitory concentration (IC50) is < 100 nM. Still for that read-out and setting: under `Cc1ccc(C(O)(C(N)=O)C(F)(F)F)cc1-c1cnc(N)c(C(=O)NCC2(C#N)CCC2)n1` (stereo not shown) [Example 16, 3-amino-6-(5-(3-amino-1,1,1-trifluoro-2-hydroxy-3-oxopropan-2-yl)-2-methylphenyl)-N-((1-cyanocyclobutyl)methyl)pyrazine-2-carboxamide trifluoroacetate] stands < 100 nM. On the same count and under the same terms, the value for `Cc1ccc(C(O)(CNC(=O)CF)C(F)(F)F)cc1-c1cnc(N)c(C(=O)NC(C)C)n1` (stereo not shown) [Example 40, 3-Amino-N-isopropyl-6-(2-methyl-5-(1,1,1,-trifluoro-3-(2-fluoroacetamido)-2-hydroxypropan-2-yl)phenyl)pyrazine-2-carboxamide trifluoroacetate] was < 500 nM.

As for `Cc1ccc(C(O)(C(N)=O)C(F)(F)F)cc1-c1cnc(N)c(C(=O)N[C@@H]2CCCOC2)n1` (stereo partly drawn) [Example 9, 3-amino-6-(5-(3-amino-1,1,1-trifluoro-2-hydroxy-3-oxopropan-2-yl)-2-methylphenyl)-N-((R)-tetrahydro-2H-pyran-3-yl)pyrazine-2-carboxamide trifluoroacetate], the IC50 is < 100 nM.

Staying with this test, now noted: Homo sapiens; Table A2; THP-1 cells, 10 nM MCP-1; read-out: PI3Kγ_THP1_RPS6_ELISA IC50.
Regarding `Cc1ccc(C(O)(C(N)=O)C(F)(F)F)cc1-c1cnc(N)c(C#Cc2cccc(F)c2)n1` (stereo not shown) [Example 61, 2-(3-(5-amino-6-((3-fluorophenyl)ethynyl)pyrazin-2-yl)-4-methylphenyl)-3,3,3-trifluoro-2-hydroxypropanamide], the IC50 was < 100 nM.

Consider `Cc1ccc(C(O)(C(N)=O)C(F)(F)F)cc1-c1cnc(N)c(C#CC2CCOCC2)n1` (stereo not shown) [Example 63, 2-(3-(5-amino-6-((tetrahydro-2H-pyran-4-yl)ethynyl)pyrazin-2-yl)-4-methylphenyl)-3,3,3-trifluoro-2-hydroxypropanamide], for which the IC50 is < 100 nM. For `Cc1ccc(C(O)(C(N)=O)C(F)(F)F)cc1-c1cnc(N)c(C#Cc2cnn(C)c2)n1` (stereo not shown) [Example 54, 2-(3-(5-amino-6-((1-methyl-1H-pyrazol-4-yl)ethynyl)pyrazin-2-yl)-4-methylphenyl)-3,3,3-trifluoro-2-hydroxypropanamide], the half-maximal inhibitory concentration (IC50) was < 100 nM.

Still in this test, the particulars now being: Homo sapiens; Table A3; THP-1 cells, 10 nM MCP-1; read-out: PI3Kγ_THP1_RPS6_ELISA IC50.
Regarding `Cc1ccc(C(O)(C(N)=O)C(F)(F)F)cc1-c1cnc(N)c(-c2ccnn2C)n1` (stereo not shown) [Example 69, 2-(3-(5-Amino-6-(1-methyl-1H-pyrazol-5-yl)pyrazin-2-yl)-4-methylphenyl)-3,3,3-trifluoro-2-hydroxypropanamide trifluoroacetate], the IC50 is < 100 nM.

As for `Cc1ncc(-c2nc(-c3cc(C(O)(C(N)=O)C(F)F)ccc3C)cnc2N)o1` (stereo not shown) [Example 100, 2-(3-(5-amino-6-(2-methyloxazol-5-yl)pyrazin-2-yl)-4-methylphenyl)-3,3-difluoro-2-hydroxypropanamide], the IC50 is < 100 nM.

Turning to `Cc1ccc(C(O)(C(N)=O)C(F)(F)F)cc1-c1cnc(N)c(-c2ccc(B(O)O)cc2)n1` (stereo not shown) [Example 97, (4-(3-Amino-6-(5-(3-amino-1,1,1-trifluoro-2-hydroxy-3-oxopropan-2-yl)-2-methylphenyl)pyrazin-2-yl)phenyl)boronic acid], the IC50 was < 500 nM. On the same count and under the same terms, under `Cc1ccc(C(O)(C(N)=O)C(F)F)cc1-c1cnc(N)c(-c2cnn(C)n2)n1` (stereo not shown) [Example 101, 2-(3-(5-amino-6-(2-methyl-2H-1,2,3-triazol-4-yl)pyrazin-2-yl)-4-methylphenyl)-3,3-difluoro-2-hydroxypropanamide] stands < 100 nM; under `CNC(=O)c1ccc(-c2nc(-c3cc(C(O)(C(N)=O)C(F)(F)F)ccc3C)cnc2N)cc1` (stereo not shown) [Example 89, 4-(3-amino-6-(5-(3-amino-1,1,1-trifluoro-2-hydroxy-3-oxopropan-2-yl)-2-methylphenyl)pyrazin-2-yl)-N-methylbenzamide trifluoroacetate], < 500 nM. Consider `CNC(=O)C(O)(c1ccc(C)c(-c2cnc(N)c(-n3cncn3)n2)c1)C(F)(F)F` (stereo not shown) [Example 94, 2-(3-(5-Amino-6-(1H-1,2,4-triazol-1-yl)pyrazin-2-yl)-4-methylphenyl)-3,3,3-trifluoro-2-hydroxy-N-methylpropanamide trifluoroacetate], for which the half-inhibitory concentration (IC50) was < 100 nM.

For `Cc1ccc(-c2nc(-c3cc(C(O)(C(N)=O)C(F)(F)F)ccc3C)cnc2N)cn1` (stereo not shown) [Example 82, 2-(3-(5-amino-6-(6-methylpyridin-3-yl)pyrazin-2-yl)-4-methylphenyl)-3,3,3-trifluoro-2-hydroxypropanamide bistrifluoroacetate], the IC50 was < 500 nM.

The test is the same for the next values; noted with them: Homo sapiens; Table A4; THP-1 cells, 10 nM MCP-1; cells given with + symbol; read-out: PI3Kγ_THP1_RPS6_ELISA IC50.
`Cc1ccc(C(O)(C(N)=O)C(F)(F)F)cc1-c1cnc(N)c(N2CCN3C(=O)CCC3C2)n1` (stereo not shown) [Example 126, 2-(3-(5-amino-6-(6-oxohexahydropyrrolo[1,2-a]pyrazin-2(1H)-yl)pyrazin-2-yl)-4-methylphenyl)-3,3,3-trifluoro-2-hydroxypropanamide trifluoroacetate]: the IC50 was < 100 nM.

For the compound `Cc1ccc([C@@](O)(C(N)=O)C(F)(F)F)cc1-c1cnc(N)c(N2CCN(C(=O)C3CC3)CC2)n1` [Example 115, (R)-2-(3-(5-amino-6-(4-(cyclopropanecarbonyl)piperazin-1-yl)pyrazin-2-yl)-4-methylphenyl)-3,3,3-trifluoro-2-hydroxypropanamide trifluoroacetate], the IC50 is < 100 nM.

Source of the values: patent publication US11046658B2, “Aminopyrazine derivatives as PI3K-γ inhibitors” (Incyte Corporation, priority 2018, dated 2021).
